Experimental data: patent publication US9133183B2, “Imidazolidinones and analogs exhibiting anti-cancer and anti-proliferative activities” (Deciphera Pharmaceuticals, LLC, priority 2013, dated 2015)
Where two headings read alike, the source gives them in different places.

Columns and labels:
[1] = target: unphosphorylated c-FMS kinase (uFMS, Seq. ID no. 1) (Homo sapiens (Human), UniProt P07333); test: uFMS kinase assay (ADP production coupled to pyruvate kinase/lactate dehydrogenase); format: biochemical; settings: enzymatic assay, ATP 500 μM
Sequence of unphosphorylated c-FMS kinase (uFMS, Seq. ID no. 1) (P07333 538-972): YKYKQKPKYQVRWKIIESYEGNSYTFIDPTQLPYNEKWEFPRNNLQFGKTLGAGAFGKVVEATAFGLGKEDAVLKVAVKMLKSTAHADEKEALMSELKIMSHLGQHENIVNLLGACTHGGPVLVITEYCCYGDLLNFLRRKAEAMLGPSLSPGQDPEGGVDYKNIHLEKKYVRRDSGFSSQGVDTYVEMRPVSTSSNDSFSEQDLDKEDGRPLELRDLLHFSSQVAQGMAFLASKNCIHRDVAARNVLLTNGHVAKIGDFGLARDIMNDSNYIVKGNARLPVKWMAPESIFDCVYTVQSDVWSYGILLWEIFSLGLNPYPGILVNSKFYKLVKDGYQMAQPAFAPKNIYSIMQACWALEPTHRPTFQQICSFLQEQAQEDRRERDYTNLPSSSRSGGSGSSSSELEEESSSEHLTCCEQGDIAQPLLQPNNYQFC
In short: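 Unphosphorylated FMS (10 nM) with polyE4Y 1 mg/mL and 500 μM ATP in 90 mM Tris pH 7.5, 10 mM MgCl2, 0.2% octyl-glucoside, 1% DMSO. ADP formation was coupled via pyruvate kinase/LDH to NADH oxidation, followed at A340 for 4 h at 30° C.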

[2] = target: unphosphorylated c-KIT kinase (uKIT, Seq. ID no. 2) (Homo sapiens (Human), UniProt P10721); test: uKit kinase assay (coupled pyruvate kinase/lactate dehydrogenase); format: biochemical; settings: enzymatic assay, ATP 2000 μM
Sequence of unphosphorylated c-KIT kinase (uKIT, Seq. ID no. 2) (P10721 other isoform, or with tags, fused parts or gaps): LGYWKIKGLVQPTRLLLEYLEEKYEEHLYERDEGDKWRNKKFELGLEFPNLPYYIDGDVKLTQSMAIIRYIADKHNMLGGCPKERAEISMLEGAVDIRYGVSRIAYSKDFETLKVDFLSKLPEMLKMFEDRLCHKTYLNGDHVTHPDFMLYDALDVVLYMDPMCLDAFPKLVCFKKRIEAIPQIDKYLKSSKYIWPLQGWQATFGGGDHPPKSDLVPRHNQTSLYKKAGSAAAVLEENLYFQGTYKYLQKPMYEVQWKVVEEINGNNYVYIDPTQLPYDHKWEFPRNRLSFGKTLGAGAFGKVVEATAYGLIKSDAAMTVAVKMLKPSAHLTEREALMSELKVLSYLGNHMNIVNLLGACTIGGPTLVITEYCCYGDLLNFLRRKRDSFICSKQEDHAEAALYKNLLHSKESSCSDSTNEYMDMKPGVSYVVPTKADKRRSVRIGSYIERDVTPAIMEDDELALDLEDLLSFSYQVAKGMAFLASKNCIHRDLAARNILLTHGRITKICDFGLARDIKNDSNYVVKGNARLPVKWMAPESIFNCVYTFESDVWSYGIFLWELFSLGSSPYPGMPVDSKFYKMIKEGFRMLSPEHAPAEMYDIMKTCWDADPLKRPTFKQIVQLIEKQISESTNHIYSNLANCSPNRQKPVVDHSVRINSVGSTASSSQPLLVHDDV
In short: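 The read-out was a continuous PK/LDH-coupled decrease in NADH absorbance at 340 nm, monitored at 30 °C over 4 h. IC50 came from % inhibition based on rates at 3–4 h. The GST-tagged unphosphorylated KIT (12 nM) was used with polyE4Y substrate, 2000 μM ATP and 10 mM Mg2+ at pH 7.5, with serially diluted compound.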

[3] = target: unphosphorylated PDGFRβ kinase (uPDGFRβ, Seq. ID No. 3) (Homo sapiens (Human), UniProt P09619); test: Unphosphorylated PDGFRβ kinase assay (coupled pyruvate kinase/lactate dehydrogenase); format: biochemical; settings: enzymatic assay, ATP 500 μM
Sequence of unphosphorylated PDGFRβ kinase (uPDGFRβ, Seq. ID No. 3) (P09619 557-1106): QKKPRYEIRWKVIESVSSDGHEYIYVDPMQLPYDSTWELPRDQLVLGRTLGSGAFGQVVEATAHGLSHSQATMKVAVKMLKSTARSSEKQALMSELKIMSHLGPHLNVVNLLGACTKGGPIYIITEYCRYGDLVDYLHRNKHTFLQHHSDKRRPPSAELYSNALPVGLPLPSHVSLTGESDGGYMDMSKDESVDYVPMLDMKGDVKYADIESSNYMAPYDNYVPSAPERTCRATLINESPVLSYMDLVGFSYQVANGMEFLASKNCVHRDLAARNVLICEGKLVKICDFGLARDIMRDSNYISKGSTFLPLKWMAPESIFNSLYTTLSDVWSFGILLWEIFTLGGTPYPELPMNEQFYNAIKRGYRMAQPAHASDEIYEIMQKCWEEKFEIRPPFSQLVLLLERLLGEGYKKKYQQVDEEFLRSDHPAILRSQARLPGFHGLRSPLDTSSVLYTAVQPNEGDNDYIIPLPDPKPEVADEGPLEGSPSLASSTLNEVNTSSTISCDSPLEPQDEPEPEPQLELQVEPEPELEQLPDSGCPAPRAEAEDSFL
Experimental: Unphosphorylated PDGFRβ (uPDGFRβ) Kinase (Seq. ID No. 3) Assay
Activity of unphosphorylated PDGFRβ kinase (uPDGFRβ, Seq. ID No. 3) was determined by following the production of ADP from the kinase reaction with ATP and poly E4Y as substrates through coupling with the pyruvate kinase/lactate dehydrogenase system (e.g., Schindler et al. Science (2000) 289: 1938-1942). In this assay, the oxidation of NADH (thus the decrease at A340 nm) was continuously monitored spectrophometrically. The reaction mixture (100 μL) contained PDGFRβ (DeCode, 15.7 nM), polyE4Y (2.5 mg/mL), MgCl2 (10 mM), pyruvate kinase (4 units), lactate dehydrogenase (0.7 units), phosphoenol pyruvate (1 mM) and NADH (0.28 mM) and ATP (500 μM) in a 90 mM Tris buffer containing 0.2% octyl-glucoside and 1% DMSO, at pH 7.5. The inhibition reaction was started by mixing serial diluted test compound with the above reaction mixture. The absorption at 340 nm was monitored continuously for 4 h at 30° C. on a Polarstar Optima or Synergy 2 plate reader. The reaction rate was calculated using the 1.5 to 2.5 h time frame. Percent inhibition was obtained by comparison of reaction rate with that of a control (i.e., with no test compound). IC50 values were calculated from a series of percent inhibition values determined at a range of inhibitor concentrations using software routines as implemented in the GraphPad Prism software package.
uPDGFRβ Kinase Sequence (Residues 557-1106) Used for Screening (Seq ID No. 3)

[4] = system: M-NFS-60 cells; test: M-NFS-60 cell proliferation assay (resazurin); format: cell-based; settings: 67 h incubation
In short: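 Cells kept in medium containing 20 ng/mL mouse recombinant M-CSF. Fluorescence was read at ex 540/em 600 nm, and IC50 was fitted from percent inhibition across a range of inhibitor concentrations.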

[5] = system: osteoclast precursors; test: Osteoclast tartrate-resistant acid phosphatase assay; format: cell-based; settings: 7-14 days, RANKL and M-CSF

Row | IC50 ([1]; read-out: uFMS) [µM] | IC50 [2] [µM] | IC50 [3] [µM] | IC50 ([5]; Osteoclast) [µM] | SMILES | IC50 [4] [µM] | IC50 ([1]; uFMS) [µM] | IC50 [5] [µM]
1 | < 0.01 | 0.01 to 0.1 | > 1 | < 0.01 | CCN1CCN(C(=O)Nc2ccc(Oc3ccnc(-c4cnn(C)c4)c3)cn2)C1=O [Example 45, 3-ethyl-N-(5-((2-(1-methyl-1H-pyrazol-4-yl)pyridin-4-yl)oxy)pyridin-2-yl)-2-oxoimidazolidine-1-carboxamide] | 0.01 to 0.1 | – | –
2 | 0.01 to 0.1 | 0.01 to 0.1 | > 1 | 0.1 to 1 | Cn1cc(-c2cc(Oc3cc(F)c(NC(=O)N4CCN(C5CCOCC5)C4=O)cc3Br)ccn2)cn1 [Example 109, N-(5-bromo-2-fluoro-4-((2-(1-methyl-1H-pyrazol-4-yl)pyridin-4-yl)oxy)phenyl)-2-oxo-3-(tetrahydro-2H-pyran-4-yl)imidazolidine-1-carboxamide] | 0.01 to 0.1 | – | –
3 | 0.01 to 0.1 | 0.01 to 0.1 | > 1 | 0.01 to 0.1 | COCCN1CCN(C(=O)Nc2ccc(Oc3ccnc(NC(=O)N(C)C)c3)cn2)C1=O [Example 116, N-(5-((2-(3,3-dimethylureido)pyridin-4-yl)oxy)pyridin-2-yl)-3-(2-methoxyethyl)-2-oxoimidazolidine-1-carboxamide] | 0.1 to 1 | – | –
4 | 0.01 to 0.1 | 0.01 to 0.1 | > 1 | 0.01 to 0.1 | Cn1cc(-c2cc(Oc3ccc(NC(=O)N4CCN(C5COC5)C4=O)nc3)ccn2)cn1 [Example 50, N-(5-((2-(1-methyl-1H-pyrazol-4-yl)pyridin-4-yl)oxy)pyridin-2-yl)-3-(oxetan-3-yl)-2-oxoimidazolidine-1-carboxamide] | 0.01 to 0.1 | – | –
5 | < 0.01 | 0.1 to 1 | > 1 | 0.01 to 0.1 | COCCN1CCN(C(=O)Nc2ccc(Oc3ccnc(-c4ccc(C5CCN(C)CC5)cc4)c3)c(C)n2)C1=O [Example 80, 3-(2-methoxyethyl)-N-(6-methyl-5-((2-(4-(1-methylpiperidin-4-yl)phenyl)pyridin-4-yl)oxy)pyridin-2-yl)-2-oxoimidazolidine-1-carboxamide] | 0.01 to 0.1 | – | –
6 | 0.01 to 0.1 | 0.01 to 0.1 | 0.1 to 1 | 0.01 to 0.1 | COC(C)(C)CCN1CCN(C(=O)Nc2ccc(Oc3ccnc(-c4cnn(C)c4)c3)cn2)C1=O [Example 24, 3-(3-methoxy-3-methylbutyl)-N-(5-((2-(1-methyl-1H-pyrazol-4-yl)pyridin-4-yl)oxy)pyridin-2-yl)-2-oxoimidazolidine-1-carboxamide] | 0.01 to 0.1 | – | –
7 | 0.01 to 0.1 | 0.01 to 0.1 | 0.1 to 1 | 0.01 to 0.1 | Cc1ncc(-c2cc(Oc3ccc(NC(=O)N4CCN(C5CCOCC5)C4=O)nc3)ccn2)s1 [Example 60, N-(5-((2-(2-methylthiazol-5-yl)pyridin-4-yl)oxy)pyridin-2-yl)-2-oxo-3-(tetrahydro-2H-pyran-4-yl)imidazolidine-1-carboxamide] | 0.01 to 0.1 | – | –
8 | 0.01 to 0.1 | > 1 | > 1 | 0.1 to 1 | CCN1CCN(C(=O)Nc2ccc(Oc3ccnc(NC(C)=O)c3)c(C)n2)C1=O [Example 122, N-(5-((2-acetamidopyridin-4-yl)oxy)-6-methylpyridin-2-yl)-3-ethyl-2-oxoimidazolidine-1-carboxamide] | 0.1 to 1 | – | –
9 | 0.01 to 0.1 | 0.1 to 1 | > 1 | – | Cn1cc(-c2cc(Oc3ccc(NC(=O)N4CC(C)(C)N(C5CCCCC5)C4=O)nc3)ccn2)cn1 [Example 31, 3-cyclohexyl-4,4-dimethyl-N-(5-((2-(1-methyl-1H-pyrazol-4-yl)pyridin-4-yl)oxy)pyridin-2-yl)-2-oxoimidazolidine-1-carboxamide] | > 1 | – | –
10 | < 0.01 | 0.01 to 0.1 | > 1 | < 0.01 | Cc1nc(NC(=O)N2CCN(C3CC3)C2=O)ccc1Oc1ccnc(-c2ccc(C3CCN(C)CC3)cc2)c1 [Example 86, 3-cyclopropyl-N-(6-methyl-5-((2-(4-(1-methylpiperidin-4-yl)phenyl)pyridin-4-yl)oxy)pyridin-2-yl)-2-oxoimidazolidine-1-carboxamide] | < 0.01 | – | –
11 | 0.01 to 0.1 | 0.01 to 0.1 | 0.1 to 1 | – | Cn1cc(-c2cc(Oc3cc(F)c(NC(=O)N4CCN(CC(O)C(C)(C)C)C4=O)cc3Cl)ccn2)cn1 (stereo not drawn) [Example 112, N-(5-chloro-2-fluoro-4-((2-(1-methyl-1H-pyrazol-4-yl)pyridin-4-yl)oxy)phenyl)-3-(2-hydroxy-3,3-dimethylbutyl)-2-oxoimidazolidine-1-carboxamide] | 0.1 to 1 | – | –
12 | 0.01 to 0.1 | 0.1 to 1 | > 1 | 0.01 to 0.1 | CN1CCN(C(=O)Nc2ccc(Oc3ccnc(-c4cnn(C)c4)c3)cn2)C1=O [Example 44, 3-methyl-N-(5-((2-(1-methyl-1H-pyrazol-4-yl)pyridin-4-yl)oxy)pyridin-2-yl)-2-oxoimidazolidine-1-carboxamide] | 0.1 to 1 | – | –
13 | 0.01 to 0.1 | 0.01 to 0.1 | > 1 | 0.01 to 0.1 | CCN1CCN(C(=O)Nc2ccc(Oc3ccnc(-c4cnc(C)s4)c3)cn2)C1=O [Example 69, 3-ethyl-N-(5-((2-(2-methylthiazol-5-yl)pyridin-4-yl)oxy)pyridin-2-yl)-2-oxoimidazolidine-1-carboxamide] | 0.1 to 1 | – | –
14 | < 0.01 | 0.01 to 0.1 | 0.1 to 1 | 0.01 to 0.1 | Cc1cc(NC(=O)N2CCN(C3CC3)C2=O)nc(C)c1Oc1ccnc(-c2cnn(C)c2)c1 [Example 71, 3-cyclopropyl-N-(4,6-dimethyl-5-((2-(1-methyl-1H-pyrazol-4-yl)pyridin-4-yl)oxy)pyridin-2-yl)-2-oxoimidazolidine-1-carboxamide] | 0.01 to 0.1 | – | –
15 | < 0.01 | 0.01 to 0.1 | 0.1 to 1 | < 0.01 | Cn1cc(-c2cc(Oc3ccc(NC(=O)N4CCN(C5CC5)C4=O)nc3)ccn2)cn1 [Example 46, 3-cyclopropyl-N-(5-((2-(1-methyl-1H-pyrazol-4-yl)pyridin-4-yl)oxy)pyridin-2-yl)-2-oxoimidazolidine-1-carboxamide] | 0.01 to 0.1 | – | –
16 | < 0.01 | 0.01 to 0.1 | > 1 | < 0.01 | CCN1CCN(C(=O)Nc2ccc(Oc3ccnc(-c4ccc(N5CCN(C)CC5)cc4)c3)c(C)n2)C1=O [Example 68, 3-ethyl-N-(6-methyl-5-((2-(4-(4-methylpiperazin-1-yl)phenyl)pyridin-4-yl)oxy)pyridin-2-yl)-2-oxoimidazolidine-1-carboxamide] | 0.01 to 0.1 | – | –
17 | 0.1 to 1 | 0.1 to 1 | > 1 | 0.1 to 1 | Cc1cn(-c2cc(Oc3cnc(NC(=O)N4CCN(C)C4=O)cc3C)ccn2)cn1 [Example 89, 3-methyl-N-(4-methyl-5-((2-(4-methyl-1H-imidazol-1-yl)pyridin-4-yl)oxy)pyridin-2-yl)-2-oxoimidazolidine-1-carboxamide] | > 1 | – | –
18 | 0.01 to 0.1 | 0.1 to 1 | > 1 | 0.01 to 0.1 | CCN1CCN(C(=O)Nc2ccc(Oc3ccnc(-c4cnc(C)s4)c3)c(C)n2)C1=O [Example 70, 3-ethyl-N-(6-methyl-5-((2-(2-methylthiazol-5-yl)pyridin-4-yl)oxy)pyridin-2-yl)-2-oxoimidazolidine-1-carboxamide] | 0.1 to 1 | – | –

Row | SMILES | IC50 ([1]; read-out: uFMS) [µM] | IC50 [2] [µM] | IC50 [3] [µM] | IC50 ([5]; Osteoclast) [µM] | IC50 [4] [µM] | IC50 ([1]; uFMS) [µM] | IC50 [5] [µM]
19 | Cc1nc(NC(=O)N2CCN([C@@H]3CCOC3)C2=O)ccc1Oc1ccnc(-c2cnn(C)c2)c1 [Example 28, (R)—N-(6-methyl-5-((2-(1-methyl-1H-pyrazol-4-yl)pyridin-4-yl)oxy)pyridin-2-yl)-2-oxo-3-(tetrahydrofuran-3-yl)imidazolidine-1-carboxamide] | – | 0.1 to 1 | > 1 | – | 0.01 to 0.1 | < 0.01 | < 0.01
